Source: PMC8610083 (Clinical cancer research : an official journal of the …, 2021)
pIC50, pKi: −log10 of the molar value.

Columns and labels:
γ-secretase [1] = biological target: T1, γ-secretase (Homo sapiens, UniProt P49768); test: Membrane-based radioligand binding assay with [^131I]-PN67; conditions: for Blocking of PN67 binding to γ-secretase: Hela cell membrane, [^131I]-PN67 radioligand
γ-secretase [2] = biological target: T1, γ-secretase; test: In vitro γ-secretase activity assay; format: biochemical
γ-secretase [3] = biological target: γ-secretase (Mus musculus, UniProt P49769); test: PET imaging of 4T1-Luc tumors in BALB/c mice, baseline and blocking; format: in vivo; conditions: co-injection 0.2 mg/kg to 30 mg/kg, 2h post injection
[4] = Ex vivo biodistribution in 4T1-Luc allograft mouse model
[5] = biodistribution, post injection

Compound	Blocking of PN67 binding to γ-secretase (γ-secretase [1])	pIC50 (γ-secretase [2])	pKi (γ-secretase [1])	other results
O=C(O)CC[C@H]1CC[C@@](c2cc(F)ccc2F)(S(=O)(=O)c2ccc(Cl)cc2)CC1 [MK-0752]	effectively block PN67 binding to γ-secretase	–	–	–
CCC[C@H](N[C@H]1CCc2cc(F)cc(F)c2C1)C(=O)Nc1cn(C(C)(C)CNCC(C)(C)C)cn1 [PF-03084014]	effectively block PN67 binding to γ-secretase	–	–	–
CC(C)(C(=O)NCC(F)(F)C(F)(F)F)C(=O)N[C@@H]1C(=O)Nc2ccccc2-c2ccccc21 [RO-4929097]	effectively block PN67 binding to γ-secretase	–	–	–
CC(C)[C@H](O)C(=O)N[C@@H](C)C(=O)N[C@@H]1C(=O)N(C)CCc2ccccc21 [compound 1, Semagacestat]	–	7.79	7.87	Blocking of [^124I]-PN67 PET signal in 4T1-Luc tumor (γ-secretase [3]): blocked in a dose-dependent manner; Blocking of 4T1 tumor uptake of [^124I]-PN67 (biodistribution) ([4]; co-administered 30mg/kg with the tracer, 2h time point): significant reduction of tracer uptake
CC(C)[C@H](O)C(=O)N[C@@H](C)C(=O)N[C@@H]1C(=O)N(C)CCc2ccc(I)cc21 [compound 2, (S)-2-hydroxy-N-((S)-1-(((S)-8-iodo-3-methyl-2-oxo-2,3,4,5-tetrahydro-1H-benzo[d]azepin-1-yl)amino)-1-oxopropan-2-yl)-3-methylbutanamide]	–	8.46	8.37	Half-life in mouse models ([4]; based on ex vivo biodistribution and PET imaging): about 2 hours; Time of maximal radioactivity in large intestine [4, 5]: 2 h; Time of maximal radioactivity in liver [4, 5]: 0.5 h; Time of maximal radioactivity in small intestine [4, 5]: 1 h
